Our source for the AC50 values is ChEMBL document CHEMBL5291721, “A preclinical secondary pharmacology resource illuminates target-adverse drug reaction associations of marketed drugs” (Nat Commun, 2023).

One test has as its target T1, Adenosine receptor A1 (Homo sapiens, UniProt P30542).
T1 sequence (P30542 whole entry): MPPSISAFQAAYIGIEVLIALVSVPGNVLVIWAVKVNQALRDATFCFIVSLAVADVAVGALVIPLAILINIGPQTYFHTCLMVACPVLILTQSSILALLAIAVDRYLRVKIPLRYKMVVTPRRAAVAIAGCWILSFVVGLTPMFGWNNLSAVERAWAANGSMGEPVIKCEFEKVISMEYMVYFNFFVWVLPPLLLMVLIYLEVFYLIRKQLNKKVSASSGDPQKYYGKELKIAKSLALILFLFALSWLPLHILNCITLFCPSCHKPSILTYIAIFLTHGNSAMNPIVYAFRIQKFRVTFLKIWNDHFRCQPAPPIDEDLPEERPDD

The target in test [1] is T2, Alpha-2A adrenergic receptor (Homo sapiens, UniProt P08913).
T2 sequence (P08913 whole entry): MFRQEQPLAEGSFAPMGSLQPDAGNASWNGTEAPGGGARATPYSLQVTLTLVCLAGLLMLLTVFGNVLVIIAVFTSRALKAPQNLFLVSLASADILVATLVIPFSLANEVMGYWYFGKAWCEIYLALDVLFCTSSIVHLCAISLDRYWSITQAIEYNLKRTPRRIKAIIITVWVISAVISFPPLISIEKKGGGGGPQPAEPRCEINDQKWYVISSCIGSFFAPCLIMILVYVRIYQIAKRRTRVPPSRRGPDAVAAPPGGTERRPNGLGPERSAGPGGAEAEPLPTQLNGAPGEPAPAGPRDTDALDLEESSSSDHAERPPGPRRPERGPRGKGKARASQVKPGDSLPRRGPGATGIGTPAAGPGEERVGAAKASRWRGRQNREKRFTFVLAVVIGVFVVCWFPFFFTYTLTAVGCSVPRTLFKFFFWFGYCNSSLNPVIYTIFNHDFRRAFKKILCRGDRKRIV
Type of test: functional, cell-based.

For the next test, the target named is T3, B2 bradykinin receptor (Homo sapiens, UniProt P30411).
T3 sequence (P30411 whole entry): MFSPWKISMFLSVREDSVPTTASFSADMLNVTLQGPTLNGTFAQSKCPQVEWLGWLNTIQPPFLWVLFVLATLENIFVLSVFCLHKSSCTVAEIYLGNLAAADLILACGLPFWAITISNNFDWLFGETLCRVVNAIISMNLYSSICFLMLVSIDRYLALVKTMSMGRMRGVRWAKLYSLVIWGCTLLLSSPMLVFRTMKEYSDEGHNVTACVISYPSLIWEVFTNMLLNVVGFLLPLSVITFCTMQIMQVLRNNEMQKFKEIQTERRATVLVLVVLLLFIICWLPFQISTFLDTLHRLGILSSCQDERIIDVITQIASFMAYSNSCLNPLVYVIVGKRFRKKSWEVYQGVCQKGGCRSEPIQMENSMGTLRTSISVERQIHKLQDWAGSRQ

The target of test [2] is Voltage-dependent L-type calcium channel subunit alpha-1C (Rattus norvegicus, UniProt P22002). In kind it is functional.
Chain of Voltage-dependent L-type calcium channel subunit alpha-1C (P22002 whole entry): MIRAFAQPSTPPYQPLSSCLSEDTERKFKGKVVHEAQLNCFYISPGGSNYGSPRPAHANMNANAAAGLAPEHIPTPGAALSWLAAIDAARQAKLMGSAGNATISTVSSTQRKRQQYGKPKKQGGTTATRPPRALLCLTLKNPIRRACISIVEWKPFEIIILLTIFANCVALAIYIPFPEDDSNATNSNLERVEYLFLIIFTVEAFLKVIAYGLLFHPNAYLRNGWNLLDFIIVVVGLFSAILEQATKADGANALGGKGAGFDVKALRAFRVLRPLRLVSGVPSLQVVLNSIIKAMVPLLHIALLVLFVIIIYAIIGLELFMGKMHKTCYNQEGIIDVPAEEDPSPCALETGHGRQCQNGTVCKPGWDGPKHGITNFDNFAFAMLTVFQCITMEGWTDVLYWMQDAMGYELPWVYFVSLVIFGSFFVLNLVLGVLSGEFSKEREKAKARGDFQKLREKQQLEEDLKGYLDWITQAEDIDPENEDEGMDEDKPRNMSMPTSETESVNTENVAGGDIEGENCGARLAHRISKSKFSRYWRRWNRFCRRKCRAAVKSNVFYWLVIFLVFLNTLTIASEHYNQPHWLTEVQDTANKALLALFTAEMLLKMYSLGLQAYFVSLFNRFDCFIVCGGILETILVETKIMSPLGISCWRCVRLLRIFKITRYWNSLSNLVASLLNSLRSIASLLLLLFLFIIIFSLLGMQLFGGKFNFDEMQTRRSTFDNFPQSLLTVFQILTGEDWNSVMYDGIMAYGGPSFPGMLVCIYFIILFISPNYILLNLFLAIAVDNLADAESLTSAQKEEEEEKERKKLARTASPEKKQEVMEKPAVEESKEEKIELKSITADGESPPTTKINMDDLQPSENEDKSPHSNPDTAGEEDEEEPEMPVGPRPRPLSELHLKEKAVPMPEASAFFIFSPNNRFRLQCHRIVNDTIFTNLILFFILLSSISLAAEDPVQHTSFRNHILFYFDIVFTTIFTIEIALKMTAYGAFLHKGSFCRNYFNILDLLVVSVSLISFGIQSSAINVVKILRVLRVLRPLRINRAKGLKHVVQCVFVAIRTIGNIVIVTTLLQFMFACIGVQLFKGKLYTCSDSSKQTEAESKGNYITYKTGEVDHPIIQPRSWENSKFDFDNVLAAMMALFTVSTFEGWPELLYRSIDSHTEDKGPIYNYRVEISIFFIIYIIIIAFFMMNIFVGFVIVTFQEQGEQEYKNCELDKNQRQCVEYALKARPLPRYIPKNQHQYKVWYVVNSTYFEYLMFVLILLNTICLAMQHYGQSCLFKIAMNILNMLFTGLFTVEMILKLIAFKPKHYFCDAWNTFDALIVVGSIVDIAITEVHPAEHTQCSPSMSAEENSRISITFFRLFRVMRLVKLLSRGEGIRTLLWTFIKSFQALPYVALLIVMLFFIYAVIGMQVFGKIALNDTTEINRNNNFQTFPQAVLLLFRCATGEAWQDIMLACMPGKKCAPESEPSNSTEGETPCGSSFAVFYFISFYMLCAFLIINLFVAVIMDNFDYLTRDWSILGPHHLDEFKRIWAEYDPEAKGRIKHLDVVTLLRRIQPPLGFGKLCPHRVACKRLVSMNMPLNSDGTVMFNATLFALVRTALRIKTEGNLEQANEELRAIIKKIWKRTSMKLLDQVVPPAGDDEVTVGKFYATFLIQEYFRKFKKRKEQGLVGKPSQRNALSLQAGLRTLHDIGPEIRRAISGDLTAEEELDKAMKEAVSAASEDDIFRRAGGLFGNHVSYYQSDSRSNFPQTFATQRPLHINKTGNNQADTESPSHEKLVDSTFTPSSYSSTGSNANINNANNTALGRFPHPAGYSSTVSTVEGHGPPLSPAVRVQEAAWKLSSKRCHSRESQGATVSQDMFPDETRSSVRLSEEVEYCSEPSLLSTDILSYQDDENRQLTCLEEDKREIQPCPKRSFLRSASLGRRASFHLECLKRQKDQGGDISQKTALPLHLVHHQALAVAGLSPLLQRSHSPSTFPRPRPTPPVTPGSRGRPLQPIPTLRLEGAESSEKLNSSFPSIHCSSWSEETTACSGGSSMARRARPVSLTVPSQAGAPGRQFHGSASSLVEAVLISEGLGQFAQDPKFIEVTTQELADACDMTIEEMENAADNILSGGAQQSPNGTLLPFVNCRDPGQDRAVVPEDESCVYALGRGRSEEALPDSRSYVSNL
Test [3] has as its target T4, Muscarinic acetylcholine receptor M2 (Homo sapiens, UniProt P08172).
T4 sequence (P08172 whole entry): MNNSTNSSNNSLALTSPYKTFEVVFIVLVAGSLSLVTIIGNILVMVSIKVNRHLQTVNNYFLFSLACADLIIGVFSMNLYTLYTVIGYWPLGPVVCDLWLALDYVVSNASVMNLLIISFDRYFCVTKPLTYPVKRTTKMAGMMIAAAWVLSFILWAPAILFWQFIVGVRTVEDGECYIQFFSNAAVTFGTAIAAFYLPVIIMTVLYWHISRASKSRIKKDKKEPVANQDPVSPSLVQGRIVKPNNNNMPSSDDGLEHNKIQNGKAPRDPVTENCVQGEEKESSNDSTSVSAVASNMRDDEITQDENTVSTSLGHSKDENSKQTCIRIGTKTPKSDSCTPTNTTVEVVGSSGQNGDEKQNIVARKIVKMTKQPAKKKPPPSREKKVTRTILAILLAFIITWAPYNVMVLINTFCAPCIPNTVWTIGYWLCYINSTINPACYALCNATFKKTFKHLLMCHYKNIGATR
In kind it is functional, cell-based.

The target of test [4] is T5, 5-hydroxytryptamine receptor 1A (Homo sapiens, UniProt P08908).
T5 sequence (P08908 whole entry): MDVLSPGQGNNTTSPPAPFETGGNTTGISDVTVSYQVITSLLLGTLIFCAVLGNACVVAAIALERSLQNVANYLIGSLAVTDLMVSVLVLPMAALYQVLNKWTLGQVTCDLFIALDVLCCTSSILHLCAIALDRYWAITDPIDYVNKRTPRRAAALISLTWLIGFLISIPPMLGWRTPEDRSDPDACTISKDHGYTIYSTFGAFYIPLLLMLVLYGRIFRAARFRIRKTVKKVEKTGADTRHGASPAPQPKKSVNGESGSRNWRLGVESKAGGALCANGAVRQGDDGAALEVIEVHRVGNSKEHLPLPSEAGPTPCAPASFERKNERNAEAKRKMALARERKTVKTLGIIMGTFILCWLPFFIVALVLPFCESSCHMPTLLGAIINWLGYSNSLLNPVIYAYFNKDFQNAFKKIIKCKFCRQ
Type of test: functional, cell-based.

Test [5] has as its target 5-hydroxytryptamine receptor 2B (Homo sapiens, UniProt P41595). Type of test: functional, cell-based.
Test [6] addresses Delta-type opioid receptor (Homo sapiens, UniProt P41143).
Test [7] deals with Kappa-type opioid receptor (Homo sapiens, UniProt P41145).
Chain of Kappa-type opioid receptor (P41145 whole entry): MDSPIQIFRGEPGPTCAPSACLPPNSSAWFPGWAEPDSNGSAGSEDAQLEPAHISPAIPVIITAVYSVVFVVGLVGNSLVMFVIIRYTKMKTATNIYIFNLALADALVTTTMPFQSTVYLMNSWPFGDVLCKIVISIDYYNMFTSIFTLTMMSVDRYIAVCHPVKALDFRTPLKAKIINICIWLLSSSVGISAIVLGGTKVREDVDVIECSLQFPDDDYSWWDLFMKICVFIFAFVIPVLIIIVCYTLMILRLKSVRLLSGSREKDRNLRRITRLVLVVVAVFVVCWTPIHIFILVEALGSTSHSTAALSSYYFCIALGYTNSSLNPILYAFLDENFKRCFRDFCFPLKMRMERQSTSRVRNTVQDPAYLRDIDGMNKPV
The target in test [8] is T6, Prostaglandin G/H synthase 1 (Rattus norvegicus, UniProt Q63921).
T6 sequence (Q63921 whole entry): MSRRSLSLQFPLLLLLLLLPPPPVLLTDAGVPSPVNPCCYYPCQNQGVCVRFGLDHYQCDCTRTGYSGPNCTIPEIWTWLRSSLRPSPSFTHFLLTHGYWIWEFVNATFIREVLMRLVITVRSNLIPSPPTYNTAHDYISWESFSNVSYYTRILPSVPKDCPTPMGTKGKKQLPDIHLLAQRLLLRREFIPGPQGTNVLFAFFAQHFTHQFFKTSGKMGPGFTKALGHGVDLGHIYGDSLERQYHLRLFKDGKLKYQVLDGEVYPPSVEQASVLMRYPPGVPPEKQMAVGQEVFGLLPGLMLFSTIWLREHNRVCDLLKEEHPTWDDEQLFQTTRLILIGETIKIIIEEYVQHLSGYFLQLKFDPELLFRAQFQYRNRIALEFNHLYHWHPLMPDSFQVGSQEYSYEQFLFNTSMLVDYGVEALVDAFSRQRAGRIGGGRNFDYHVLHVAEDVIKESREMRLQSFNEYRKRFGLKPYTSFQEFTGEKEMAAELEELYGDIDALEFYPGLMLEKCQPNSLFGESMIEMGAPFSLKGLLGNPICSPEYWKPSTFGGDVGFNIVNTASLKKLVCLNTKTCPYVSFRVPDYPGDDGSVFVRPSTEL
Type of test: functional.
Further: assay procedure not described here.

Chain of Delta-type opioid receptor (P41143 whole entry): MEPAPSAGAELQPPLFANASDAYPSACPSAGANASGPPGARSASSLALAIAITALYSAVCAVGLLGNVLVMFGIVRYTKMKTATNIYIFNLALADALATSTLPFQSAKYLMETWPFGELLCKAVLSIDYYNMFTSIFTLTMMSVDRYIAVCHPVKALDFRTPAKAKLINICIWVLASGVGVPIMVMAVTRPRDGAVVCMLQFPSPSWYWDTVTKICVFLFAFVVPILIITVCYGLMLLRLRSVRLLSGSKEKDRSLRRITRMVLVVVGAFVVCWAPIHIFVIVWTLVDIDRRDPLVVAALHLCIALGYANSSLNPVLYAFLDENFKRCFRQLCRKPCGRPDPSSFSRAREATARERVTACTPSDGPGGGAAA
Chain of 5-hydroxytryptamine receptor 2B (P41595 whole entry): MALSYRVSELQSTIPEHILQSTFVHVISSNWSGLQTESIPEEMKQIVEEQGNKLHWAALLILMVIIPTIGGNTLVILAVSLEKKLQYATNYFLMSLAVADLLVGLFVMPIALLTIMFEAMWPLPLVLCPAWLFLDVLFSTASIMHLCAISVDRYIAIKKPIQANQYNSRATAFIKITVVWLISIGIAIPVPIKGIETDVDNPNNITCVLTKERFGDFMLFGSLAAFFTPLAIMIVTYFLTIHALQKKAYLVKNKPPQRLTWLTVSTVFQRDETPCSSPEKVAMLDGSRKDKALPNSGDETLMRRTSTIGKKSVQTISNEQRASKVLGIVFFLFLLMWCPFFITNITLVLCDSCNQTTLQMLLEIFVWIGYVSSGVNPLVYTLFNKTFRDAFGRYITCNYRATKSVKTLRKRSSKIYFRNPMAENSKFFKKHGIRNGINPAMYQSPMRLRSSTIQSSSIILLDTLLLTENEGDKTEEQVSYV

A word on the AC50: it is the concentration at which the activity in the assay is half-maximal. For the compound `Cc1ccc(-c2nc3ccc(C)cn3c2CC(=O)N(C)C)cc1` [ZOLPIDEM], the AC50 (at Adenosine receptor A1; in test [1]; on B2 bradykinin receptor; in test [2]; in test [3]; in test [4]) was above 30 µM throughout. The AC50 is above 30 µM in test [5], above 30 µM in [6], 18 µM in test [7] and above 30 µM in [8].
Turning to `CCOC(=O)[C@H](CCc1ccccc1)N[C@H]1CCCN2CCC[C@@H](C(=O)O)N2C1=O` [CILAZAPRIL], the AC50 (at Adenosine receptor A1; in [1]; at B2 bradykinin receptor; in test [2]; in test [3]; in test [4]) was above 30 µM throughout. In addition, the AC50 in test [5], in test [6], in [7] and in test [8] was above 30 µM each time.
For `C#CCN(C)[C@H](C)Cc1ccccc1` [SELEGILINE], the half-maximal activity concentration (AC50) (at Adenosine receptor A1; in test [1]; at B2 bradykinin receptor; in test [2]; in [3]; in test [4]) was above 10 µM each time. Also, the AC50 is above 10 µM in [5], above 30 µM in test [6], 7.8 µM in test [7] and above 10 µM in test [8].
`C[C@]12CCC(=O)C=C1CC[C@@H]1[C@@H]2CC[C@@]2(C)[C@H]1CC[C@]2(C)O` [METHYLTESTOSTERONE]: the AC50 (on Adenosine receptor A1; in test [1]; at B2 bradykinin receptor; in [2]; in test [3]; in test [4]) was above 30 µM each time. The AC50 in test [5], in [6], in test [7] and in [8] was above 30 µM in each case.
In the case of `CC(C)(Oc1ccc(C2CC2(Cl)Cl)cc1)C(=O)O` (stereo not given) [CIPROFIBRATE], the AC50 (at Adenosine receptor A1; in test [1]; on B2 bradykinin receptor; in test [2]; in test [3]; in test [4]) was above 30 µM throughout. The concentration at half-maximal activity (AC50) in [5], in [6], in test [7] and in test [8] was above 30 µM in each case.
As for `CCOc1cc(N)c([N+](=O)[O-])cc1C(=O)NC1CCN(CC2CC=CCC2)CC1` (stereo not given) [CINITAPRIDE], the AC50 (at Adenosine receptor A1; in [1]; on B2 bradykinin receptor; in [2]; in test [3]; in test [4]) was above 30 µM throughout. The AC50 in test [5] was above 30 µM; in [6], above 30 µM; in test [7] it was 9.1 µM; in test [8], above 30 µM.
On to `COC(=O)[C@H]1[C@@H](OC(=O)c2ccccc2)C[C@@H]2CC[C@H]1N2C` [COCAINE], for which the AC50 (on Adenosine receptor A1; in [1]; at B2 bradykinin receptor; in test [2]; in test [3]; in test [4]) was above 30 µM throughout. The AC50 in test [5], in test [6], in [7] and in [8] was above 30 µM each time.
Turning to `O=C(O)CCCc1ccccc1` [PHENYLBUTANOIC ACID], the AC50 on Adenosine receptor A1 was above 10 µM; in test [1] it was above 30 µM; on B2 bradykinin receptor, above 30 µM; in test [2] it was above 30 µM; in test [3] it was above 30 µM; in test [4], above 30 µM. Further, the AC50 in test [5], in [6], in [7] and in test [8] was above 30 µM each time.
Turning to `CN[C@@H](C)[C@H](O)c1ccccc1` [EPHEDRINE], the AC50 is above 30 µM at Adenosine receptor A1; above 10 µM in test [1]; above 30 µM on B2 bradykinin receptor; above 10 µM in [2]; 17 µM in test [3]; above 10 µM in test [4]. Also, the AC50 was above 10 µM in test [5], above 30 µM in test [6], above 10 µM in test [7] and above 30 µM in test [8].
Regarding `CN1C(=O)COc2c(C(=O)NC3CN4CCC3CC4)cc(Cl)cc21` (stereo not given) [AZASETRON], the AC50 at Adenosine receptor A1 is above 30 µM; in [1], above 10 µM; at B2 bradykinin receptor, above 30 µM; in test [2], above 30 µM; in test [3], above 30 µM; in test [4], above 30 µM. Besides, the AC50 in test [5], in test [6], in [7] and in [8] was above 30 µM in each case.
